Data from patent publication US20040076968A1, “Method for detecting pre-disposition to hepatotoxicity” (priority 2000, published 2004).

Test system: UGT1A6 gene
Experiment: Association of UGT1A6 polymorphisms with liver function abnormality in tolcapone-treated patients (case-control genotyping)
Assay type: in vivo, human
Protocol: Disease severity had already been controlled for by the original study inclusion criteria.
In the KTC format, the generation of double-stranded amplification product is monitored using a DNA intercalating dye and a thermal cycler which has a fluorescence-detecting CCD camera attached (PE-Bipsystems GeneAmp 5700 Sequence Detection System). Fluorescence in each well of the PCR amplification plate is measured at each cycle of annealing and denaturation. The cycle at which the relative fluorescence reached a threshold of 0.5 using the SDS sofiware from PE-Biosystems was defined as the Ct.
The amplification reactions were designed to be allele-specific, so that the amplification reaction was positive if the polymorphism was present and the amplification reaction was negative if the polymorphism was absent. For each bi-allelic polymorphism, one well of the amplification plate was set up to be specific for allele 1 and a second well was set up to be specific for allele 2. For each polymorphism to be detected, three primers were designed—two allele-specific primers and one common primer (Table 3). Reactions for allele 1 contained allele 1-specific primer and the common primer and reactions for allele 2 contained allele 2-specific primer and the common primer.
The Ct of each amplification reaction was determined and the difference between the Ct for allele 1 and allele 2 (delta Ct) was, used as the assay result. Samples with delta Cts between −3.0 and 3.0 were considered heterozygous (A1/A2). Samples with delta Cts below −3.0 were considered homozygous for A1 (A1/A1); samples with delta Cts above 3.0 were considered homozygous for A2 (A2/A2).
For all other single nucleotide polymorphisms (SNPs) discovery and genotyping was done by double-stranded DNA sequencing using an ABI capillary sequencer and Big Dye chemistry (ABI). The primers used to amplify all exons are shown below and were also used as sequencing primers. Publicly available genomic sequences were used as references for primer design. All polymorphisms were targeted with these pairs-of-primer sets:
The patient samples were divided into two groups.
For each genotype, the following analyses were performed:
a) Analysis of the entire genotype: patients were classified according to the following three categories: homozygous 1/1 (two copies of allele 1 and no copies of allele 2), heterozygous 1/2 (one copy of allele 1 and one copy of allele 2) or homozygous 2/2 (no copies of allele 1 and two copies of allele 2). Analysis was conducted to assess whether there were differences in the proportion of case patients in each of these groups, compared with the proportion of control patients. The Cochran-Maentel-Hanszel (CMH) test was applied to the data presented in a 2-by-3 table (the two columns indicating presence or absence of liver function abnormality and the three rows indicating the three categories of the genotype).
b) Analysis of alleles: the presence of allele 1 or 2 in case patients was compared to the presence of the respective allele in the control patients.
c) Analysis of allele counts: this analysis was conducted to compare the distribution of the alleles in patients with liver function abnormality to that of patients without abnormality. The total number of copies of allele 1 among patients with liver function abnormality was compared with the total number of copies of allele 2 among these case patients.

n (%) of patients (UGT1A6_232 Ser7Ala, Allele G Absent, Liver Function Abnormality Absent): 112 (42.1%) | n (%) of patients (UGT1A6_232 Ser7Ala, Allele G Absent, Liver Function Abnormality Present): 40 (30.5%) | n (%) of patients (UGT1A6_232 Ser7Ala, Allele G Present, Liver Function Abnormality Absent): 154 (57.9%) | n (%) of patients (UGT1A6_232 Ser7Ala, Allele G Present, Liver Function Abnormality Present): 91 (69.5%) | n (%) of patients (UGT1A6_232 Ser7Ala, Allele T Absent, Liver Function Abnormality Absent): 31 (11.7%) | n (%) of patients (UGT1A6_232 Ser7Ala, Allele T Absent, Liver Function Abnormality Present): 28 (21.4%) | n (%) of patients (UGT1A6_232 Ser7Ala, Allele T Present, Liver Function Abnormality Absent): 235 (88.3%) | n (%) of patients (UGT1A6_232 Ser7Ala, Allele T Present, Liver Function Abnormality Present): 103 (78.6%) | n (%) of allele copies (UGT1A6_232 Ser7Ala, Count Allele G, Liver Function Abnormality Absent): 185 (34.8%) | n (%) of allele copies (UGT1A6_232 Ser7Ala, Count Allele G, Liver Function Abnormality Present): 119 (45.4%) | n (%) of allele copies (UGT1A6_232 Ser7Ala, Count Allele T, Liver Function Abnormality Absent): 347 (65.2%) | n (%) of allele copies (UGT1A6_232 Ser7Ala, Count Allele T, Liver Function Abnormality Present): 143 (54.6%) | n (%) of patients (UGT1A6_232 Ser7Ala, Genotype Heterozygous T/G, Liver Function Abnormality Absent): 123 (46.2%) | n (%) of patients (UGT1A6_232 Ser7Ala, Genotype Heterozygous T/G, Liver Function Abnormality Present): 63 (48.1%) | n (%) of patients (UGT1A6_232 Ser7Ala, Genotype Homozygous G/G, Liver Function Abnormality Absent): 31 (11.7%) | n (%) of patients (UGT1A6_232 Ser7Ala, Genotype Homozygous G/G, Liver Function Abnormality Present): 28 (21.4%) | n (%) of patients (UGT1A6_232 Ser7Ala, Genotype Homozygous T/T, Liver Function Abnormality Absent): 112 (42.1%) | n (%) of patients (UGT1A6_232 Ser7Ala, Genotype Homozygous T/T, Liver Function Abnormality Present): 40 (30.5%) | n (%) of patients (UGT1A6_528 A/G, Allele A Absent, Liver Function Abnormality Absent): 22 (8.3%) | n (%) of patients (UGT1A6_528 A/G, Allele A Absent, Liver Function Abnormality Present): 26 (20.0%) | n (%) of patients (UGT1A6_528 A/G, Allele A Present, Liver Function Abnormality Absent): 243 (91.7%) | n (%) of patients (UGT1A6_528 A/G, Allele A Present, Liver Function Abnormality Present): 104 (80.0%) | n (%) of patients (UGT1A6_528 A/G, Allele G Absent, Liver Function Abnormality Absent): 129 (48.7%) | n (%) of patients (UGT1A6_528 A/G, Allele G Absent, Liver Function Abnormality Present): 44 (33.8%) | n (%) of patients (UGT1A6_528 A/G, Allele G Present, Liver Function Abnormality Absent): 136 (51.3%) | n (%) of patients (UGT1A6_528 A/G, Allele G Present, Liver Function Abnormality Present): 86 (66.2%) | n (%) of allele copies (UGT1A6_528 A/G, Count Allele A, Liver Function Abnormality Absent): 372 (70.2%) | n (%) of allele copies (UGT1A6_528 A/G, Count Allele A, Liver Function Abnormality Present): 148 (56.9%) | n (%) of allele copies (UGT1A6_528 A/G, Count Allele G, Liver Function Abnormality Absent): 158 (29.8%) | n (%) of allele copies (UGT1A6_528 A/G, Count Allele G, Liver Function Abnormality Present): 112 (43.1%) | n (%) of patients (UGT1A6_528 A/G, Genotype Heterozygous A/G, Liver Function Abnormality Absent): 114 (43.0%) | n (%) of patients (UGT1A6_528 A/G, Genotype Heterozygous A/G, Liver Function Abnormality Present): 60 (46.2%) | n (%) of patients (UGT1A6_528 A/G, Genotype Homozygous A/A, Liver Function Abnormality Absent): 129 (48.7%) | n (%) of patients (UGT1A6_528 A/G, Genotype Homozygous A/A, Liver Function Abnormality Present): 44 (33.8%) | n (%) of patients (UGT1A6_528 A/G, Genotype Homozygous G/G, Liver Function Abnormality Absent): 22 (8.3%) | n (%) of patients (UGT1A6_528 A/G, Genotype Homozygous G/G, Liver Function Abnormality Present): 26 (20.0%) | n (%) of patients (UGT1A6_754 Thr181Ala, Allele Ala Absent, Liver Function Abnormality Absent): 144 (52.6%) | n (%) of patients (UGT1A6_754 Thr181Ala, Allele Ala Absent, Liver Function Abnormality Present): 51 (37.8%) | n (%) of patients (UGT1A6_754 Thr181Ala, Allele Ala Present, Liver Function Abnormality Absent): 130 (47.4%) | n (%) of patients (UGT1A6_754 Thr181Ala, Allele Ala Present, Liver Function Abnormality Present): 84 (62.2%) | n (%) of patients (UGT1A6_754 Thr181Ala, Allele Thr Absent, Liver Function Abnormality Absent): 22 (8.0%) | n (%) of patients (UGT1A6_754 Thr181Ala, Allele Thr Absent, Liver Function Abnormality Present): 25 (18.5%) | n (%) of patients (UGT1A6_754 Thr181Ala, Allele Thr Present, Liver Function Abnormality Absent): 252 (92.0%) | n (%) of patients (UGT1A6_754 Thr181Ala, Allele Thr Present, Liver Function Abnormality Present): 110 (81.5%) | n (%) of allele copies (UGT1A6_754 Thr181Ala, Count Allele Ala, Liver Function Abnormality Absent): 152 (27.7%) | n (%) of allele copies (UGT1A6_754 Thr181Ala, Count Allele Ala, Liver Function Abnormality Present): 109 (40.4%) | n (%) of allele copies (UGT1A6_754 Thr181Ala, Count Allele Thr, Liver Function Abnormality Absent): 396 (72.3%) | n (%) of allele copies (UGT1A6_754 Thr181Ala, Count Allele Thr, Liver Function Abnormality Present): 161 (59.6%) | n (%) of patients (UGT1A6_754 Thr181Ala, Genotype Heterozygous Thr/Ala, Liver Function Abnormality Absent): 108 (39.4%) | n (%) of patients (UGT1A6_754 Thr181Ala, Genotype Heterozygous Thr/Ala, Liver Function Abnormality Present): 59 (43.7%) | n (%) of patients (UGT1A6_754 Thr181Ala, Genotype Homozygous Ala/Ala, Liver Function Abnormality Absent): 22 (8.8%) | n (%) of patients (UGT1A6_754 Thr181Ala, Genotype Homozygous Ala/Ala, Liver Function Abnormality Present): 25 (18.5%) | n (%) of patients (UGT1A6_754 Thr181Ala, Genotype Homozygous Thr/Thr, Liver Function Abnormality Absent): 144 (52.6%) | n (%) of patients (UGT1A6_754 Thr181Ala, Genotype Homozygous Thr/Thr, Liver Function Abnormality Present): 51 (37.8%) | n (%) of patients (UGT1A6_765 Arg184Ser, Allele Arg Absent, Liver Function Abnormality Absent): 24 (8.8%) | n (%) of patients (UGT1A6_765 Arg184Ser, Allele Arg Absent, Liver Function Abnormality Present): 26 (19.3%) | n (%) of patients (UGT1A6_765 Arg184Ser, Allele Arg Present, Liver Function Abnormality Absent): 250 (91.2%) | n (%) of patients (UGT1A6_765 Arg184Ser, Allele Arg Present, Liver Function Abnormality Present): 109 (80.7%) | n (%) of patients (UGT1A6_765 Arg184Ser, Allele Ser Absent, Liver Function Abnormality Absent): 128 (46.7%) | n (%) of patients (UGT1A6_765 Arg184Ser, Allele Ser Absent, Liver Function Abnormality Present): 45 (33.3%) | n (%) of patients (UGT1A6_765 Arg184Ser, Allele Ser Present, Liver Function Abnormality Absent): 146 (53.3%) | n (%) of patients (UGT1A6_765 Arg184Ser, Allele Ser Present, Liver Function Abnormality Present): 90 (66.7%) | n (%) of allele copies (UGT1A6_765 Arg184Ser, Count Allele Arg, Liver Function Abnormality Absent): 378 (69.0%) | n (%) of allele copies (UGT1A6_765 Arg184Ser, Count Allele Arg, Liver Function Abnormality Present): 154 (57.0%) | n (%) of allele copies (UGT1A6_765 Arg184Ser, Count Allele Ser, Liver Function Abnormality Absent): 170 (31.0%) | n (%) of allele copies (UGT1A6_765 Arg184Ser, Count Allele Ser, Liver Function Abnormality Present): 116 (43.0%) | n (%) of patients (UGT1A6_765 Arg184Ser, Genotype Heterozygous Arg/Ser, Liver Function Abnormality Absent): 122 (44.5%) | n (%) of patients (UGT1A6_765 Arg184Ser, Genotype Heterozygous Arg/Ser, Liver Function Abnormality Present): 64 (47.4%) | n (%) of patients (UGT1A6_765 Arg184Ser, Genotype Homozygous Arg/Arg, Liver Function Abnormality Absent): 128 (46.7%) | n (%) of patients (UGT1A6_765 Arg184Ser, Genotype Homozygous Arg/Arg, Liver Function Abnormality Present): 45 (33.3%) | n (%) of patients (UGT1A6_765 Arg184Ser, Genotype Homozygous Ser/Ser, Liver Function Abnormality Absent): 24 (8.8%) | n (%) of patients (UGT1A6_765 Arg184Ser, Genotype Homozygous Ser/Ser, Liver Function Abnormality Present): 26 (19.3%)
Structure (SMILES): Cc1ccc(C(=O)c2cc(O)c(O)c([N+](=O)[O-])c2)cc1 [tolcapone]
